Measured values as given in patent publication US10730830B2, “Tetrahydronaphthalene derivative” (ONO PHARMACEUTICAL CO., LTD., priority 2016, dated 2020).
pEC50, pIC50: −log10 of the molar value. Counter-ions that a name gives are not always drawn.

Key:
human S1P1 (EDG-1) = human S1P1 (EDG-1) (Homo sapiens (Human), UniProt P21453); assay: Inhibition of binding of [33P]-S1P to S1P1 (EDG-1), CHO cell membrane fractions; settings: [33P]-S1P displacement, CHO membranes overexpressing human S1P1
Experimental: (§1) Biological Experimental Example 1: Measurement of the Inhibitory Action of the Compound of the Present Invention on Binding of [^33P]-S1P to S1P5 (EDG-8)
(§2) A reaction was carried out in a 96-well microplate by using membrane fractions of Chinese hamster ovary (CHO) cells each of which was made to overexpress human S1P1 (EDG-1) or human S1P5 gene respectively, in an amount of the membrane fraction of 1 mg protein/mL. To each of the wells, 100 μL of a vehicle (DMSO) solution or a two-fold concentration-ligand solution each of which was diluted with Binding Buffer (50 mmol/L, Tris pH 7.5, 5 mmol/L, MgCl2, 0.5% BSA and Complete EDTA free (1 tablet/50 mL)), and 50 μL of 0.16 nmol/L [^33P]-S1P (manufactured by American Radiolabeled Chemicals, Inc.) diluted with Binding Buffer were added. Thereafter, the membrane fraction solutions (50 μL) was added to the wells and the reaction was carried out at room temperature for 60 minutes. After the reaction, suction filtration was carried out by using a 96-well UNIFILTER, and the 96-well microplate was washed with Wash Buffer (50 mmol/L, Tris pH 7.5, 0.5% BSA) ([…]), and thereafter, was dried at 60° C. for 45 minutes. MicroScint (trade name) 20 (50 μL/well) was added and the plate was covered with TopSeal-A, and thereafter, the radioactivity was measured by using TopCount (manufactured by PerkinElmer Inc.).

human S1P5 (EDG-8) [1] = molecular target: T1, human S1P5 (EDG-8) (Homo sapiens (Human), UniProt Q9H228); assay: Inhibition of binding of [33P]-S1P to S1P5 (EDG-8), CHO cell membrane fractions; settings: [33P]-S1P displacement, CHO membranes overexpressing human S1P5
Experimental: as §1, §2

human S1P5 (EDG-8) [2] = molecular target: T1, human S1P5 (EDG-8); assay: S1P5 receptor agonist activity by monitoring intracellular cyclic AMP in CHO cells overexpressing human S1P5; assay type: cell-based; settings: cAMP, forskolin-stimulated CHO cells overexpressing human S1P5
Experimental: Biological Example 2: Evaluation of S1P5 Receptor Agonist Activities of the Compound of the Present Invention by Monitoring the Concentration of Produced Intracellular Cyclic AMP
CHO cells which were made to overexpress human S1P5 (EDG-8) gene were cultured in Ham's F12 Medium (manufactured by Gibco-BRL) containing 10% FBS (fetal bovine serum), penicillin/streptomycin and geneticin (0.25 mg/mL). The medium was removed from the cultured cells, the cultured cells were washed once with phosphate-buffered saline, and the cultured cells were treated with a vehicle (DMSO) solution or a compound solution each of which was diluted with Buffer (Hanks' balanced salt solution containing 20 mmol/L HEPES, 0.1 or 0.2% BSA, 1 mmol/L IBMX and 5 μmol/L forskolin) at 37° C. for 30 minutes. Thereafter, the cultured cells were washed once with phosphate-buffered saline, lysis of the cells, and the concentration of cyclic AMP in the cell lysate were measured by using cAMP Assay Kit (Cisbio Bioassays).

human S1P1 (EDG-1), sequence (P21453 whole entry): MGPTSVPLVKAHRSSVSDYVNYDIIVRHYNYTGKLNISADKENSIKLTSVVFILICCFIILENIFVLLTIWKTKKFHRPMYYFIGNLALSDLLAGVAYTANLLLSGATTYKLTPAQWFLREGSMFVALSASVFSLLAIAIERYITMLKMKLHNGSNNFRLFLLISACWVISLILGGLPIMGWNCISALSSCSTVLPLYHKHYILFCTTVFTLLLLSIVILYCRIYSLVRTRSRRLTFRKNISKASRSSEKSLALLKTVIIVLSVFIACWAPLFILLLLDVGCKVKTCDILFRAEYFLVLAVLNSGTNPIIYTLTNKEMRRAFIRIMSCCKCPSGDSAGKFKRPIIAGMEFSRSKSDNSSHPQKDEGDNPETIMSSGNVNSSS
T1 sequence (Q9H228 whole entry): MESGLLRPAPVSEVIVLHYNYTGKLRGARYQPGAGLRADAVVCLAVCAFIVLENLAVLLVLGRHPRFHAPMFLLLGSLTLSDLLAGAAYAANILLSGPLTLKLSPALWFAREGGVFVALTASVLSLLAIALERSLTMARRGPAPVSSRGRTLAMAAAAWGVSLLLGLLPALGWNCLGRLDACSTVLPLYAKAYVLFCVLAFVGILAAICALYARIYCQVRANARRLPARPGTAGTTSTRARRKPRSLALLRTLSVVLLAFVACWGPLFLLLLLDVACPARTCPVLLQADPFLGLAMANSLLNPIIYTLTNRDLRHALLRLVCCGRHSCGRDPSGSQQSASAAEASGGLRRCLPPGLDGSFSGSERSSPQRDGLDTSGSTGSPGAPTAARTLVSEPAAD

| SMILES | pIC50 (human S1P1 (EDG-1)) | pIC50 (human S1P5 (EDG-8) [1]) | pEC50 (human S1P5 (EDG-8) [2]) |
| --- | --- | --- | --- |
| O=C(O)C1CC(N2CCc3cccc(OCCc4cccc5ccccc45)c3CC2)C1 (single isomer, unassigned) [Example 23 (8), 3-{6-[2-(1-Naphthyl)ethoxy]-1,2,4,5-tetrahydro-3H-3-benzazepin-3-yl}cyclobutanecarboxylic Acid] | < 5.00 | 7.00 to 9.00 | – |
| O=C(O)C1CN(C2CCc3cccc(OCCc4cccc5ccccc45)c3C2)C1 (single isomer, unassigned; (+)) [Example 51 (2), (+)-1-{8-[2-(1-Naphthyl)ethoxy]-1,2,3,4-tetrahydro-2-naphthalenyl}-3-azetidinecarboxylic Acid] | < 5.00 | 7.00 to 9.00 | – |
| O=C(O)C1CN(C2CCc3cccc(OCCc4cccc5ccccc45)c3C2)C1 (single isomer, unassigned; (-)) [Example 51 (1), (−)-1-{8-[2-(1-Naphthyl)ethoxy]-1,2,3,4-tetrahydro-2-naphthalenyl}-3-azetidinecarboxylic Acid] | < 5.00 | 7.00 to 9.00 | – |
| O=C(O)C1CCN(C2CCc3c(cccc3OC/C=C/c3ccc(C(F)(F)F)cc3)C2)C1 (stereo not drawn) [Example 3 (1), 1-[5-({(2E)-3-[4-(Trifluoromethyl)phenyl]-2-propen-1-yl}oxy)-1,2,3,4-tetrahydro-2-naphthalenyl]-3-pyrrolidinecarboxylic Acid] | < 4.52 | 5.52 to 6.00 | – |
| CN(CCC(=O)O)C1CCc2cccc(OC/C=C/c3ccc(C(F)(F)F)cc3)c2C1 (stereo not drawn) [Example 3 (3), 3-{Methyl[8-({(2E)-3-[4-(trifluoromethyl)phenyl]-2-propen-1-yl}loxy)-1,2,3,4-tetrahydro-2-naphthalenyl]amino}propanoic Acid] | < 4.52 | 6.00 to 7.00 | – |
| O=C(O)C1CN(C2CCc3cccc(OCCCc4ccccc4)c3C2)C1 (stereo not drawn) [Example 3 (4), 1-[8-(3-Phenylpropoxy)-1,2,3,4-tetrahydro-2-naphthalenyl]-3-azetidinecarboxylic Acid] | < 5.00 | 7.00 to 9.00 | – |
| O=C(O)C1CN(C2CCc3cccc(OCCc4cccc5ccccc45)c3C2)C1 (stereo not drawn) [Example 3 (5), 1-{8-[2-(1-Naphthyl)ethoxy]-1,2,3,4-tetrahydro-2-naphthalenyl}-3-azetidinecarboxylic Acid] | – | – | 7.00 to 9.00 |
| O=C(O)CCCN1CCc2c(cccc2OCCc2ccc3ccccc3c2)C1 [Example 18 (1), 4-{5-[2-(2-naphthyl)ethoxy]-3,4-dihydro-2(1H)-isoquinolinyl}butanoic Acid trifluoroacetate] | < 4.52 | 5.52 to 6.00 | – |
| O=C(O)CCCN1CCc2cccc(OC/C=C/c3ccc(C(F)(F)F)cc3)c2C1 [Example 18 (2), 4-[8-({(2E)-3-[4-(Trifluoromethyl)phenyl]-2-propen-1-yl}oxy)-3,4-dihydro-2(1H)-isoquinolinyl]butanoic Acid trifluoroacetate] | < 4.52 | 5.52 to 6.00 | – |
| CC(C)c1ccc(/C=C/COc2cccc3c2CCN(CCCC(=O)O)C3)cc1 [Example 18 (3), 4-[5-{[(2E)-3-(4-Isopropylphenyl)-2-propen-1-yl]oxy}-3,4-dihydro-2(1H)-isoquinolinyl]butanoic Acid] | < 4.52 | 5.52 to 6.00 | – |
| O=C(O)CCCN1CCc2c(cccc2OC/C=C/c2ccc(OC(F)F)cc2)C1 [Example 18 (4), 4-[5-({(2E)-3-[4-(Difluoromethoxy)phenyl]-2-propen-1-yl}oxy)-3,4-dihydro-2(1H)-isoquinolinyl]butanoic Acid] | < 4.52 | 5.52 to 6.00 | – |
| O=C(O)CCN1CCc2cccc(OC/C=C/c3ccc(C(F)(F)F)cc3)c2CC1 [Example 18 (8), 3-[6-({(2E)-3-[4-(Trifluoromethyl)phenyl]-2-propen-1-yl}oxy)-1,2,4,5-tetrahydro-3H-3-benzazepin-3-yl]propanoic Acid] | < 5.00 | 6.00 to 7.00 | – |
| O=C(O)CCCN1CCc2cccc(OCCOc3ccc(C(F)(F)F)cc3)c2CC1 [Example 18 (10), 4-(6-{2-[4-(Trifluoromethyl)phenoxy]ethoxy}-1,2,4,5-tetrahydro-3H-3-benzazepin-3-yl)butanoic Acid] | < 5.00 | 7.00 to 9.00 | – |
| O=C(O)CCCN1CCc2cccc(OCCCc3ccccc3)c2CC1 [Example 18 (11), 4-[6-(3-Phenylpropoxy)-1,2,4,5-tetrahydro-3H-3-benzazepin-3-yl]butanoic Acid] | – | – | 7.00 to 9.00 |
| O=C(O)CCCN1CCc2cccc(OCCCC3CCCCC3)c2CC1 [Example 18 (14), 4-[6-(3-Cyclohexylpropoxy)-1,2,4,5-tetrahydro-3H-3-benzazepin-3-yl]butanoic Acid] | < 5.00 | 6.00 to 7.00 | – |
| O=C(O)CCCN1CCc2cccc(OCC3CCc4ccccc4C3)c2CC1 (stereo not drawn) [Example 18 (16), 4-[6-(1,2,3,4-Tetrahydro-2-naphthalenylmethoxy)-1,2,4,5-tetrahydro-3H-3-benzazepin-3-yl]butanoic Acid] | < 5.00 | 6.00 to 7.00 | – |
| O=C(O)CCCN1CCc2cccc(OCCc3cccc4ccccc34)c2CC1 [Example 18 (18), 4-{6-[2-(1-Naphthyl)ethoxy]-1,2,4,5-tetrahydro-3H-3-benzazepin-3-yl}butanoic Acid] | < 5.00 | 7.00 to 9.00 | 7.00 to 9.00 |
| O=C(O)CCCN1CCc2cccc(OCCc3ccccc3)c2CC1 [Example 18 (22), 4-[6-(2-Phenylethoxy)-1,2,4,5-tetrahydro-3H-3-benzazepin-3-yl]butanoic Acid] | < 5.00 | 6.00 to 7.00 | – |
| O=C(O)CCCN1CCc2cccc(OCCCCCc3ccccc3)c2CC1 [Example 18 (24), 4-{6-[(5-Phenylpentyl)oxy]-1,2,4,5-tetrahydro-3H-3-benzazepin-3-yl}butanoic Acid] | < 5.00 | 7.00 to 9.00 | – |
| O=C(O)CCCN1CCc2cccc(OCCC3Cc4ccccc43)c2CC1 (stereo not drawn) [Example 18 (26), 4-{6-[2-(Bicyclo[4.2.0]octa-1,3,5-trien-7-yl)ethoxy]-1,2,4,5-tetrahydro-3H-3-benzazepin-3-yl}butanoic Acid] | < 5.00 | 6.00 to 7.00 | – |
| CCCCCCCCOc1cccc2c1CCN(CCCC(=O)O)CC2 [Example 18 (32), 4-[6-(Octyloxy)-1,2,4,5-tetrahydro-3H-3-benzazepin-3-yl]butanoic Acid] | < 5.00 | 6.00 to 7.00 | – |
| O=C(O)CCCN1CCc2cccc(OCCCC3CCOCC3)c2CC1 [Example 18 (42), 4-{6-[3-(tetrahydro-2H-pyran-4-yl)propoxy]-1,2,4,5-tetrahydro-3H-3-benzazepin-3-yl}butanoic Acid] | < 5.00 | 6.00 to 7.00 | – |
| Cc1ccc2c(c1OCCCc1ccccc1)CCN(CCCC(=O)O)CC2 [Example 29, 4-[7-Methyl-6-(3-phenylpropoxy)-1,2,4,5-tetrahydro-3H-3-benzazepin-3-yl]butanoic Acid] | < 5.00 | 7.00 to 9.00 | – |
| O=C(O)CC1(CN2CCc3cccc(OCCc4cccc5ccccc45)c3CC2)CC1 [Example 37, [1-({6-[2-(1-Naphthyl)ethoxy]-1,2,4,5-tetrahydro-3H-3-benzazepin-3-yl}methyl)cyclopropyl]acetic Acid] | < 5.00 | 6.00 to 7.00 | – |
| O=C(O)C1CN(C2Cc3cccc(OCCc4ccccc4)c3C2)C1 (stereo not drawn) [Example 48, 1-[4-(2-Phenylethoxy)-2,3-dihydro-1H-inden-2-yl]-3-azetidinecarboxylic Acid] | < 4.52 | 6.00 to 7.00 | – |
| O=C(O)CCCCN1CCCc2c(cccc2OC/C=C/c2ccc(C(F)(F)F)cc2)C1 [Example 49, 5-[6-({(2E)-3-[4-(Trifluoromethyl)phenyl]-2-propen-1-yl}oxy)-1,3,4,5-tetrahydro-2H-2-benzazepin-2-yl]pentanoic Acid] | < 4.52 | 5.52 to 6.00 | – |
